Assay in all cases: biochemical
One experiment addresses DRB1*0802 (Homo sapiens, UniProt P01903+P01911, A100R/A103L/A169T/F76Y/H45Y/I96F/K41T/L162R/M171V/P40S/Q125H/Q178H/Q39Y/Q99D/R218S/R42G/S66Y/V115G/W38E). It is filed as binding.
In another experiment the target is DRB5*0101 (Homo sapiens, UniProt P01903+Q30154). To be noted: Binding affinity DRB5 *0101.
In a further experiment the target is DRB1*1101 (Homo sapiens, UniProt P01903+P01911, A100R/A169T/A87E/I96F/K41T/L162R/M171V/P40S/Q125H/Q178H/Q39Y/Q99D/R42S/S66Y/T262R/V115G/W38E). As to conditions: Binding affinity DRB1 *1101.
Chain of DRB1*1101 (P01903 26-254 limits assumed, other chains not shown): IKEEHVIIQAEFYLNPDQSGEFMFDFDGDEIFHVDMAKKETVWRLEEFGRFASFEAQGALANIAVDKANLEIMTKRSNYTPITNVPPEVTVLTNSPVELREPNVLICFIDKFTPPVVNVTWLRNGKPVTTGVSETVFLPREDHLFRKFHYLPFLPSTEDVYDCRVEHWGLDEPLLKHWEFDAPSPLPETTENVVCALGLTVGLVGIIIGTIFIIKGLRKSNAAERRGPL
In another experiment the target is DRB1*1201 (Homo sapiens, UniProt P01903+P01911, A100R/A169T/D57E/D86V/F55L/H45Y/K41T/L162R/M171V/P40S/Q125H/Q178H/Q39Y/Q99D/R42G/S66L/T262R/V114A/V67L/W38E/Y59H/Y61H/Y89S). It is filed as binding.
The next experiment deals with DRB1*0901 (Homo sapiens, UniProt P01903+P01911, A100R/A103E/D57H/D86V/F55Y/F60I/F76Y/I96F/K127E/L162R/M171V/P40D/Q125H/Q99R/R33Q/R42F/S133A/S66N/T210M/V115G/W38K/Y107V/Y59G/Y89S). The experiment is classed as binding.
The target of another experiment is DR7 (DRB1*0701) (Homo sapiens, UniProt P01903+P01911, A100R/A102G/A103Q/D57E/D86V/E43K/F76Y/K127E/L162R/M171V/P40G/Q125H/Q99D/R33Q/R42Y/R54Q/S133A/S66F/T210M/V115G/Y107V/Y59L/Y89S). It is filed as binding.
The next experiment addresses DRB1*1501 (Homo sapiens, UniProt P01903+P01911). The experiment is classed as binding.

No end group written: not given here.

The values that follow come from patent US9340577B2, “HLA binding motifs and peptides and their uses” (priority 1992, dated 2016).

In general, IC50 refers to the concentration at which inhibition is half-maximal.

Take `CC[C@H](C)[C@H](NC(=O)[C@H](CO)NC(=O)[C@H](CC(C)C)NC(=O)[C@@H](NC(=O)[C@H](CC(C)C)NC(=O)[C@H](CC(=O)O)NC(=O)[C@H](Cc1c[nH]c2ccccc12)NC(=O)[C@@H](N)CCSC)C(C)C)C(=O)N[C@@H](C)C(=O)N[C@@H](CC(C)C)C(=O)N[C@@H](CO)C(=O)N[C@H](C(=O)NCC(=O)N[C@@H](CS)C(=O)N[C@H](C(=O)O)[C@@H](C)O)C(C)C` [Peptide 68.0001]: the IC50 was over 20 µM at DRB1*0802, over 20 µM at DRB5*0101, over 20 µM on DRB1*1101 and 4.58 µM against DRB1*1201.
In the case of `CC[C@H](C)[C@H](NC(=O)[C@H](CO)NC(=O)[C@@H](NC(=O)CNC(=O)[C@H](CCC(=O)O)NC(=O)[C@@H]1CCCN1)C(C)C)C(=O)N[C@@H](Cc1c[nH]c2ccccc12)C(=O)N[C@@H](CC(N)=O)C(=O)N1CCC[C@H]1C(=O)N[C@H](C(=O)N[C@@H](CC(C)C)C(=O)N[C@@H](CC(C)C)C(=O)N[C@@H](Cc1c[nH]c2ccccc12)C(=O)N[C@@H](CCC(N)=O)C(=O)N1CCC[C@H]1C(=O)O)[C@@H](C)CC` [Peptide 68.0033], the IC50 on DRB1*0802 was over 20 µM; at DRB5*0101, over 20 µM; at DRB1*1101, over 20 µM; against DRB1*0901 it was over 20 µM; at DRB1*1201, 7.97 µM.
With `CC[C@H](C)[C@H](NC(=O)[C@@H](N)CC(C)C)C(=O)N[C@@H](CCSC)C(=O)N[C@@H](Cc1ccc(O)cc1)C(=O)N[C@@H](CO)C(=O)N[C@@H](C)C(=O)N[C@@H](Cc1c[nH]cn1)C(=O)N[C@@H](CC(=O)O)C(=O)N[C@H](C(=O)N[C@H](C(=O)N[C@H](C(=O)N[C@@H](CO)C(=O)NCC(=O)N[C@@H](CC(C)C)C(=O)N[C@@H](CCC(N)=O)C(=O)O)C(C)C)[C@@H](C)O)[C@@H](C)O` [Peptide 68.0050], the IC50 on DRB1*0802, at DRB5*0101, on DRB1*1101 and at DRB1*1201 was over 20 µM in each case.
As to `CSCC[C@H](NC(=O)[C@H](CCC(N)=O)NC(=O)[C@H](CC(C)C)NC(=O)CNC(=O)[C@H](CO)NC(=O)[C@@H](NC(=O)[C@@H](NC(=O)[C@@H](NC(=O)[C@@H](N)CC(=O)O)[C@@H](C)O)[C@@H](C)O)C(C)C)C(=O)N[C@@H](C)C(=O)N[C@@H](CC(C)C)C(=O)N[C@@H](CC(=O)O)C(=O)N[C@H](C(=O)N[C@@H](Cc1ccc(O)cc1)C(=O)N[C@@H](CC(N)=O)C(=O)O)C(C)C` [Peptide 68.0051], the IC50 on DRB1*0802 is over 20 µM; at DRB5*0101, over 20 µM; on DRB1*1101, over 20 µM; against DRB1*1201, 0.712 µM.
Turning to `CC[C@H](C)[C@H](NC(=O)[C@@H](NC(=O)[C@@H](N)CO)C(C)C)C(=O)N[C@@H](CC(C)C)C(=O)N[C@@H](CC(C)C)C(=O)NCC(=O)N[C@@H](CCCNC(=N)N)C(=O)N[C@@H](Cc1c[nH]cn1)C(=O)N[C@@H](CO)C(=O)N[C@@H](CC(C)C)C(=O)N[C@@H](Cc1ccccc1)C(=O)N[C@@H](Cc1c[nH]cn1)C(=O)N1CCC[C@H]1C(=O)N[C@@H](CCC(=O)O)C(=O)N[C@@H](CC(=O)O)C(=O)O` [Peptide 68.0067], the results for the IC50 at DR7 (DRB1*0701) and on DRB1*1201 were over 20 µM and 0.091 µM, respectively.
For the molecule `CC[C@H](C)[C@H](NC(=O)CNC(=O)[C@H](CCC(N)=O)NC(=O)[C@H](CC(C)C)NC(=O)[C@@H](NC(=O)CNC(=O)[C@H](CC(N)=O)NC(=O)[C@H](CS)NC(=O)[C@@H](NC(=O)[C@H](CC(C)C)NC(=O)[C@@H]1CCCN1C(=O)CN)C(C)C)C(C)C)C(=O)N[C@H](C(=O)N[C@@H](CO)C(=O)N[C@@H](Cc1c[nH]c2ccccc12)C(=O)O)[C@@H](C)O` [Peptide 68.0080], the results for the IC50 against DRB1*0901 and against DRB1*1201 were over 20 µM and 1.88 µM, respectively.
In the case of `CC(C)C[C@H](NC(=O)CNC(=O)[C@H](Cc1ccccc1)NC(=O)[C@H](CCC(=O)O)NC(=O)[C@H](CCCCN)NC(=O)[C@@H](N)Cc1c[nH]c2ccccc12)C(=O)N[C@@H](CC(=O)O)C(=O)N[C@@H](CO)C(=O)N[C@H](C(=O)N[C@@H](CCC(=O)O)C(=O)N[C@@H](CC(C)C)C(=O)N[C@@H](C)C(=O)N[C@@H](Cc1c[nH]cn1)C(=O)N[C@@H](Cc1ccc(O)cc1)C(=O)N[C@@H](CC(=O)O)C(=O)O)C(C)C` [Peptide 68.0088], the IC50 on DRB1*1501, on DRB5*0101 and at DRB1*1201 was over 20 µM throughout.
As to `CC[C@H](C)[C@H](NC(=O)[C@H](CO)NC(=O)[C@H](CO)NC(=O)[C@H](CC(=O)O)NC(=O)[C@H](C)NC(=O)[C@H](CC(N)=O)NC(=O)[C@@H](NC(=O)[C@H](Cc1ccc(O)cc1)NC(=O)[C@H](C)NC(=O)[C@@H](NC(=O)CN)C(C)C)[C@@H](C)CC)C(=O)N[C@@H](CCC(=O)O)C(=O)NCC(=O)N[C@@H](CC(N)=O)C(=O)N[C@@H](Cc1ccc(O)cc1)C(=O)O` [Peptide 68.0110], the IC50 is over 20 µM at DRB1*0802, over 20 µM at DRB5*0101, over 20 µM at DRB1*1101 and 5.49 µM against DRB1*1201.
With `CSCC[C@H](NC(=O)[C@H](CC(C)C)NC(=O)[C@@H]1CCCN1C(=O)[C@@H](NC(=O)[C@H](CS)NC(=O)[C@H](CC(=O)O)NC(=O)[C@@H](NC(=O)[C@H](CCCNC(=N)N)NC(=O)[C@H](CC(C)C)NC(=O)[C@@H](NC(=O)[C@H](Cc1ccc(O)cc1)NC(=O)[C@@H](N)CC(N)=O)[C@@H](C)O)C(C)C)[C@@H](C)O)C(=O)N[C@@H](Cc1ccc(O)cc1)C(=O)N[C@@H](CO)C(=O)N[C@@H](CC(C)C)C(=O)O` [Peptide 68.0112], the IC50 at DRB5*0101 is over 20 µM; against DR7 (DRB1*0701) it was over 20 µM; at DRB1*0901, over 20 µM; against DRB1*1201 it was 0.594 µM.
As for `CC[C@H](C)[C@H](NC(=O)[C@H](CO)NC(=O)[C@H](CC(N)=O)NC(=O)[C@H](C)NC(=O)[C@H](CC(C)C)NC(=O)[C@H](CCC(=O)O)NC(=O)[C@H](Cc1ccccc1)NC(=O)[C@@H](NC(=O)[C@H](CCSC)NC(=O)CN)C(C)C)C(=O)N[C@H](C(=O)N[C@@H](CC(C)C)C(=O)N1CCC[C@H]1C(=O)N[C@@H](Cc1ccccc1)C(=O)N[C@@H](CC(=O)O)C(=O)O)C(C)C` [Peptide 68.0123], the IC50 on DRB1*1101 was over 20 µM; against DRB1*1201, 0.098 µM.
`CC[C@H](C)[C@H](NC(=O)[C@H](CO)NC(=O)[C@H](CC(N)=O)NC(=O)[C@H](C)NC(=O)[C@H](CC(C)C)NC(=O)[C@H](CCC(=O)O)NC(=O)[C@H](Cc1ccccc1)NC(=O)[C@@H](N)C(C)C)C(=O)N[C@H](C(=O)N[C@@H](CC(C)C)C(=O)N1CCC[C@H]1C(=O)N[C@@H](Cc1ccccc1)C(=O)N[C@@H](CC(=O)O)C(=O)N[C@@H](CS)C(=O)N[C@@H](CCCNC(=N)N)C(=O)O)C(C)C` [Peptide 68.0124]: the IC50 was over 20 µM at DRB1*0802 and 0.525 µM at DRB1*1201.
On to `CC[C@H](C)[C@H](NC(=O)[C@H](CCC(=O)O)NC(=O)[C@H](CC(N)=O)NC(=O)CNC(=O)[C@H](CC(=O)O)NC(=O)[C@H](CCC(=O)O)NC(=O)[C@H](CC(N)=O)NC(=O)[C@@H](NC(=O)[C@@H](NC(=O)[C@H](CO)NC(=O)[C@@H](NC(=O)[C@@H](N)Cc1ccc(O)cc1)[C@@H](C)CC)[C@@H](C)CC)[C@@H](C)CC)C(=O)N[C@@H](Cc1ccccc1)C(=O)N[C@@H](CC(N)=O)C(=O)N[C@H](C(=O)O)[C@@H](C)O` [Peptide 68.0165], for which the IC50 against DRB1*0802, at DRB5*0101, on DRB1*1101, on DR7 (DRB1*0701), against DRB1*0901 and at DRB1*1201 was over 20 µM in each case.
As for `CC[C@H](C)[C@H](NC(=O)[C@H](CO)NC(=O)[C@H](CO)NC(=O)[C@H](CC(=O)O)NC(=O)[C@H](C)NC(=O)[C@H](CC(N)=O)NC(=O)[C@@H](NC(=O)[C@H](Cc1ccc(O)cc1)NC(=O)[C@H](C)NC(=O)[C@@H](N)C(C)C)[C@@H](C)CC)C(=O)N[C@@H](CCC(=O)O)C(=O)NCC(=O)N[C@@H](CC(N)=O)C(=O)N[C@@H](Cc1ccc(O)cc1)C(=O)N[C@H](C(=O)O)[C@@H](C)O` [Peptide 68.0177], the IC50 against DRB1*0802 was over 20 µM; at DRB1*1501, over 20 µM; on DRB5*0101, over 20 µM; on DRB1*1101, over 20 µM; at DRB1*1201, 8.25 µM.
Regarding GAAVVHEIVRSFGTL [Peptide 68.0173], inhibition against DRB1*1201 was half-maximal at 0.517 µM (IC50).
In the case of GKVFRGNKVKNAQLA [Peptide 68.0096], the IC50 on DRB1*0901 and at DRB1*1201 was over 20 µM throughout.
Molecule HPQWVLTAAHCLKKN [Peptide 68.0003] yielded an IC50 at DRB1*1201 of 11.5 µM.
With IGYYDAQKLLEKMGG [Peptide 68.0103], the IC50 at DRB1*1101, against DR7 (DRB1*0701), against DRB1*0901 and on DRB1*1201 was over 20 µM throughout.
Regarding LRMMNDQLMFLERAF [Peptide 68.0131], on DRB1*1201, the IC50 turned out to be 0.28 µM.
For NSRLLQERGVAYINA [Peptide 68.0176], 0.62 µM corresponded to half-maximal inhibition at DRB1*1201 (IC50).
On to PRSLQCVSLHLLSND [Peptide 68.0016], for which the results for the IC50 at DRB5*0101, on DRB1*0901 and at DRB1*1201 were over 20 µM, over 20 µM and 3.86 µM, respectively.
